According to US11713335B2, “Aminocoumarin compounds and methods of their use” (President and Fellows of Harvard College, priority 2018, dated 2023):
In brackets after ≈: the same amount, converted by molar mass. Where two headings read alike, the source gives them in different places.

Key:
[1] = system: E. coli MC4100; assay: Minimal inhibitory concentration, E. coli MC4100; type: cell-based; conditions: 16 hour minimal inhibitory concentration at 37° C., read-out: MIC (μM) E. coli MC4100 ara+
Method in brief: (§1)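 Growth at 600 nm after 16 h at 37 °C without shaking defines the MIC, taken as the lowest compound concentration that prevents growth and expressed in µM. Cultures grown to saturation in LB, or TSA for S. aureus, were diluted 1:100 twice before twofold serial compound dilution.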

[2] = system: A. baumannii 19606; assay: Minimal inhibitory concentration, A. baumannii 19606; type: cell-based; conditions: 16 hour minimal inhibitory concentration at 37° C., read-out: MIC (μM) A. baumannii 19606
Method in brief: as §1

[3] = system: E. cloacae 13047; assay: Minimal inhibitory concentration, E. cloacae 13047; type: cell-based; conditions: 16 hour minimal inhibitory concentration at 37° C., read-out: MIC (μM) E. cloacae 13047
Method in brief: as §1

[4] = system: K. pneumoniae 700721; assay: Minimal inhibitory concentration, K. pneumoniae 700721; type: cell-based; conditions: 16 hour minimal inhibitory concentration at 37° C., read-out: MIC (μM) K. pneumoniae 700721
Method in brief: as §1

[5] = system: S. aureus MW2; assay: Minimal inhibitory concentration, S. aureus MW2; type: cell-based; conditions: read-out: MIC (μM) S. aureus MW2 (MRSA)
Method in brief: as §1

[6] = system: S. aureus RN4220; assay: Minimal inhibitory concentration, S. aureus RN4220; type: cell-based; conditions: 16 hour minimal inhibitory concentration at 37° C., read-out: MIC (μM) S. aureus RN4220
Method in brief: as §1

[7] = system: WT E. coli; assay: Minimal inhibitory concentration in wild-type E. coli; type: cell-based, Escherichia coli; conditions: read-out: MIC (μM) in WT E. coli
Method in brief: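 Broth microdilution: saturated LB overnight culture diluted 1:100 twice, compound serially two-fold diluted across the plate from DMSO stock. Static incubation 16 hours at 37° C, OD600 read; MIC taken as lowest concentration inhibiting growth.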

[8] = system: E. coli 25922; assay: Minimal inhibitory concentration, E. coli 25922; type: cell-based; conditions: 16 hour minimal inhibitory concentration at 37° C., read-out: MIC (μM) E. coli 25922
Method in brief: as §1

[9] = 16 hour minimal inhibitory concentration at 37° C.
[10] = wild-type E. coli, 37° C., 16 hours
[11] = Staphylococcus aureus, RN4220, 16 h

Row | SMILES | MIC [1] | MIC [2] | MIC [3] | MIC [4] | MIC [5, 9] | MIC [6] | MIC [7, 10] | MIC [8] | also measured
1 | CO[C@@H]1[C@@H](OC(N)=O)[C@@H](O)[C@H](Oc2ccc3c(O)c(NC(=O)c4cc(-c5ccccc5)c(O)cc4O)c(=O)oc3c2C)OC1(C)C [Compound 67] | 18 µM (≈ 11.5 µg/mL) | >50 µM | >100 µM | 79 µM (≈ 50.3 µg/mL) | 5 µM (≈ 3.18 µg/mL) | 10 µM (≈ 6.37 µg/mL) | 18 µM (≈ 11.5 µg/mL) | 5 µM (≈ 3.18 µg/mL) | –
2 | CO[C@@H]1[C@@H](OC(N)=O)[C@@H](O)[C@H](Oc2ccc3c(O)c(NC(=O)c4cccc(-c5ccc(Br)cc5)c4)c(=O)oc3c2C)OC1(C)C [Compound 68] | – | – | – | – | – | – | – | – | MIC ([1]; Escherichia coli, MC4100, 16 h): 18 µM (≈ 12.3 µg/mL); MIC ([2]; Acinetobacter baumannii, 19606, 16 h): 18 µM (≈ 12.3 µg/mL); MIC ([3]; Enterobacter cloacae, 13047): > 100 µM; MIC ([4]; Klebsiella pneumoniae, 700721): > 100 µM; MIC ([5]; Staphylococcus aureus, MRSA, 16 h, 16 hour minimal inhibitory concentration at 37° C.): 0.91 µM (≈ 0.622 µg/mL); MIC [6, 11]: 0.91 µM (≈ 0.622 µg/mL); MIC ([7]; Escherichia coli, wild-type E. coli, 37° C., 16 hours): 18 µM (≈ 12.3 µg/mL); MIC ([8]; Escherichia coli, 25922, 16 h): 18 µM (≈ 12.3 µg/mL)
3 | CO[C@@H]1[C@@H](OC(N)=O)[C@@H](O)[C@H](Oc2ccc3c(O)c(NC(=O)c4cccc(Cc5ccccc5)c4)c(=O)oc3c2C)OC1(C)C [Compound 69] | 89 µM (≈ 55.1 µg/mL) | >50 µM | >100 µM | >100 µM | 3 µM (≈ 1.86 µg/mL) | 5 µM (≈ 3.09 µg/mL) | 89 µM (≈ 55.1 µg/mL) | 81 µM (≈ 50.1 µg/mL) | –
4 | CO[C@@H]1[C@@H](OC(N)=O)[C@@H](O)[C@H](Oc2ccc3c(O)c(NC(=O)c4ccc5ccn(C)c5c4)c(=O)oc3c2C)OC1(C)C [Compound 70] | >200 µM | >50 µM | >100 µM | >100 µM | 43 µM (≈ 25 µg/mL) | 86 µM (≈ 50 µg/mL) | >300 µM | >200 µM | –
5 | CO[C@@H]1[C@@H](OC(N)=O)[C@@H](O)[C@H](Oc2ccc3c(O)c(NC(=O)c4ccc5ccn(C)c5c4)c(=O)oc3c2C)OC1(C)C.Cl [Compound 71] | >200 µM | >50 µM | >100 µM | >100 µM | 41 µM | 81 µM | >300 µM | >200 µM | –
6 | CO[C@@H]1[C@@H](OC(N)=O)[C@@H](O)[C@H](Oc2ccc3c(O)c(NC(=O)c4ccc5c(ccn5C)c4)c(=O)oc3c2C)OC1(C)C [Compound 72] | >200 µM | >50 µM | >100 µM | >100 µM | 43 µM (≈ 25 µg/mL) | 86 µM (≈ 50 µg/mL) | >300 µM | >200 µM | –
7 | CO[C@@H]1[C@@H](OC(N)=O)[C@@H](O)[C@H](Oc2ccc3c(O)c(NC(=O)c4ccc5c(ccn5C)c4)c(=O)oc3c2C)OC1(C)C.Cl [Compound 73] | >200 µM | >50 µM | >100 µM | >100 µM | 81 µM | >100 µM | >300 µM | >200 µM | –
8 | CO[C@@H]1[C@@H](OC(N)=O)[C@@H](O)[C@H](Oc2ccc3c(O)c(NC(=O)c4cccc5ccn(C)c45)c(=O)oc3c2C)OC1(C)C [Compound 74] | >200 µM | >50 µM | >100 µM | >100 µM | >100 µM | >100 µM | >300 µM | >200 µM | –
9 | CO[C@@H]1[C@@H](OC(N)=O)[C@@H](O)[C@H](Oc2ccc3c(O)c(NC(=O)c4cc(-c5ccccc5)cc(-c5ccccc5)c4)c(=O)oc3c2C)OC1(C)C [Compound 75] | >200 µM | >50 µM | >100 µM | >100 µM | 9 µM (≈ 6.13 µg/mL) | 18 µM (≈ 12.3 µg/mL) | >300 µM | >200 µM | –
10 | CO[C@@H]1[C@@H](OC(N)=O)[C@@H](O)[C@H](Oc2ccc3c(O)c(NC(=O)c4ccc(C#Cc5ccccc5)cc4)c(=O)oc3c2C)OC1(C)C [Compound 76] | 40 µM (≈ 25.1 µg/mL) | 40 µM (≈ 25.1 µg/mL) | >100 µM | >100 µM | 3 µM (≈ 1.89 µg/mL) | 5 µM (≈ 3.14 µg/mL) | 40 µM (≈ 25.1 µg/mL) | 80 µM (≈ 50.3 µg/mL) | –
11 | CO[C@@H]1[C@@H](OC(N)=O)[C@@H](O)[C@H](Oc2ccc3c(O)c(NC(=O)c4ccc(CCc5ccccc5)cc4)c(=O)oc3c2C)OC1(C)C [Compound 77] | 40 µM (≈ 25.3 µg/mL) | >50 µM | >100 µM | >100 µM | 5 µM (≈ 3.16 µg/mL) | 10 µM (≈ 6.33 µg/mL) | 40 µM (≈ 25.3 µg/mL) | 40 µM (≈ 25.3 µg/mL) | –
12 | CO[C@@H]1[C@@H](OC(N)=O)[C@@H](O)[C@H](Oc2ccc3c(O)c(NC(=O)c4cc(O)cc(-c5ccccc5)c4)c(=O)oc3c2C)OC1(C)C [Compound 78] | 59 µM (≈ 36.6 µg/mL) | 40 µM (≈ 24.8 µg/mL) | >100 µM | >100 µM | 4 µM (≈ 2.48 µg/mL) | 5 µM (≈ 3.1 µg/mL) | 59 µM (≈ 36.6 µg/mL) | 40 µM (≈ 24.8 µg/mL) | –
13 | CO[C@@H]1[C@@H](OC(N)=O)[C@@H](O)[C@H](Oc2ccc3c(O)c(NC(=O)c4ccc(O)c(-c5ccc(F)cc5)c4)c(=O)oc3c2C)OC1(C)C [Compound 79] | 26 µM (≈ 16.6 µg/mL) | 20 µM (≈ 12.8 µg/mL) | >100 µM | 78 µM (≈ 49.8 µg/mL) | 0.98 µM (≈ 0.626 µg/mL) | 2 µM (≈ 1.28 µg/mL) | 26 µM (≈ 16.6 µg/mL) | 20 µM (≈ 12.8 µg/mL) | –
14 | CO[C@@H]1[C@@H](OC(N)=O)[C@@H](O)[C@H](Oc2ccc3c(O)c(NC(=O)c4ccc(O)c(C/C=C/C(C)=O)c4)c(=O)oc3c2C)OC1(C)C [Compound 81] | – | – | – | – | – | – | – | – | MIC ([1]; Escherichia coli, MC4100): > 200 µM; MIC ([2]; Acinetobacter baumannii, 19606): > 50 µM; MIC ([3]; Enterobacter cloacae, 13047): > 100 µM; MIC ([4]; Klebsiella pneumoniae, 700721): > 100 µM; MIC ([5]; Staphylococcus aureus, MRSA, 16 h): 40 µM (≈ 25.1 µg/mL); MIC [6, 11]: 40 µM (≈ 25.1 µg/mL); MIC ([7]; Escherichia coli, 16 h): > 300 µM; MIC ([8]; Escherichia coli, 25922): > 200 µM
15 | CO[C@@H]1[C@@H](OC(N)=O)[C@@H](O)[C@H](Oc2ccc3c(O)c(NC(=O)c4ccc(O)c(C/C=C/C(=O)O)c4)c(=O)oc3c2C)OC1(C)C [Compound 82] | >200 µM | >50 µM | >100 µM | >100 µM | >100 µM | >100 µM | >300 µM | >200 µM | –
16 | CO[C@@H]1[C@@H](OC(N)=O)[C@@H](O)[C@H](Oc2ccc3c(O)c(NC(=O)c4ccc(O)c(-c5ccccc5)c4)c(=O)oc3c2C)OC1(C)C [Compound 83] | 26 µM (≈ 16.1 µg/mL) | 20 µM (≈ 12.4 µg/mL) | >100 µM | >100 µM | 2.5 µM (≈ 1.55 µg/mL) | 3 µM (≈ 1.86 µg/mL) | 26 µM (≈ 16.1 µg/mL) | 40 µM (≈ 24.8 µg/mL) | –
17 | CO[C@@H]1[C@@H](OC(N)=O)[C@@H](O)[C@H](Oc2ccc3c(O)c(NC(=O)c4cc(-c5ccc(F)cc5)c(O)cc4O)c(=O)oc3c2C)OC1(C)C [Compound 84] | 8 µM (≈ 5.24 µg/mL) | >50 µM | 81 µM (≈ 53 µg/mL) | 40 µM (≈ 26.2 µg/mL) | 5 µM (≈ 3.27 µg/mL) | 5 µM (≈ 3.27 µg/mL) | 8 µM (≈ 5.24 µg/mL) | 10 µM (≈ 6.55 µg/mL) | –
18 | CO[C@@H]1[C@@H](OC(N)=O)[C@@H](O)[C@H](Oc2ccc3c(O)c(NC(=O)c4cc(-c5ccccc5)ccc4N)c(=O)oc3c2C)OC1(C)C [Compound 85] | 59 µM (≈ 36.6 µg/mL) | >50 µM | >100 µM | >100 µM | 2.5 µM (≈ 1.55 µg/mL) | 5 µM (≈ 3.1 µg/mL) | 59 µM (≈ 36.6 µg/mL) | 40 µM (≈ 24.8 µg/mL) | –
19 | CO[C@@H]1[C@@H](OC(N)=O)[C@@H](O)[C@H](Oc2ccc3c(O)c(NC(=O)c4ccc(N)c(-c5ccccc5)c4)c(=O)oc3c2C)OC1(C)C [Compound 86] | 18 µM (≈ 11.2 µg/mL) | >50 µM | >100 µM | 40 µM (≈ 24.8 µg/mL) | 20 µM (≈ 12.4 µg/mL) | 20 µM (≈ 12.4 µg/mL) | 18 µM (≈ 11.2 µg/mL) | 20 µM (≈ 12.4 µg/mL) | –
